Measured values taken from US8541585B2, “N-acyl cyclic amine derivative or pharmaceutically acceptable salt thereof” (Dainippon Sumitomo Pharma Co., Ltd., priority 2010, dated 2013).

Legend:
[1] = target: human D2L receptor (Homo sapiens, UniProt P14416); assay: Dopamine D2L receptor binding assay ([3H]-spiperone); settings: 10 nM test drug; [3H]-spiperone 0.5 nM; human D2L receptor-expressing CHO cell membrane; read-out: BINDING INHIBITION RATE (%) D2L 10 nM
Protocol: (1) Dopamine D2L Receptor Binding Assay
D2L receptor binding assay was performed in reference to a method described by Hirose et al. (Japan. J. Pharmacol., 53, 321-329, 1990). After a reaction in a total volume of 200 μL of 50 mM Tris-HCl (pH=7.6) buffer solution containing 50 μL of [^3H]-spiperone (final concentration 0.5 nM), 1 μL of test drug in DMSO, and 149 μL of human D2L receptor-expressing CHO cell membrane sample, human D2L receptor binding activity of [^3H]-spiperone was measured. The reaction solution let stand for 60 minutes at room temperature, and then it was quickly added on a glass fiber filter plate (Multiscreen FB, Millipore inc.) coated with 0.3% polyethyleneimine (PEI) and filtered under reduced pressure. The glass fiber filter was washed with 200 μL of ice-cooled 50 mM Tris-HCl (pH=7.6) twice, repeatedly filtered under reduced pressure, and then transferred to a vial containing 4 mL of Ecoscint A (National Diagnostics inc.). The residual radioactivity on the glass fiber filter was measured by a liquid scintillation counter. Nonspecific binding was measured in the presence of 10 μM of spiperone, and [^3H]-spiperone binding inhibition rate in the presence of 10 nM of test drug was determined. The larger binding inhibition rate (%) means that test drug has the higher binding affinity for human D2L receptor.

[2] = target: T1, human 5-HT2A receptor (Homo sapiens, UniProt P28223); assay: Serotonin 5-HT2A receptor binding assay ([3H]-ketanserin); settings: [3H]-ketanserin 1 nM, human 5-HT2A receptor-expressing CHO cell membrane; for inhibition at 0.001 µM: 1 nM test drug, read-out: BINDING INHIBITION RATE (%) 5HT2A 1 nM; for inhibition at 0.01 µM: 10 nM test drug, read-out: BINDING INHIBITION RATE (%) 5HT2A 10 nM
T1 construct: expressed in transfected cells; host or cells: CHO cells (membrane preparation)
T1 sequence (P28223 whole entry): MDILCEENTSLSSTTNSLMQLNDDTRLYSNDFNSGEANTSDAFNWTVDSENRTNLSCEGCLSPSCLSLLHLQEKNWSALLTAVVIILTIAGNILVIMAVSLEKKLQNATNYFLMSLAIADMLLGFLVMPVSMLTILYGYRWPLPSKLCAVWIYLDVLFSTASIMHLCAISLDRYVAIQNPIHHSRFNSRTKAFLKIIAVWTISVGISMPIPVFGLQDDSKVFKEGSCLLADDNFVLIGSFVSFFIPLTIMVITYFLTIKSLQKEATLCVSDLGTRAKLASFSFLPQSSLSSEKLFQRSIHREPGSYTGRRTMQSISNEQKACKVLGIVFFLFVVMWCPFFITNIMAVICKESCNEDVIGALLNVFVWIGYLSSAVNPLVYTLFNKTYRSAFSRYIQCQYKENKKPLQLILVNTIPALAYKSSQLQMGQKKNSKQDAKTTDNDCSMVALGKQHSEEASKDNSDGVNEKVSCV
Protocol: (2) Serotonin 5-HT2A Receptor Binding Assay
5-HT2A receptor binding assay was performed in reference to a method described by Hirose et al. (Japan. J. Pharmacol., 53, 321-329, 1990). After a reaction in a total volume of 200 μL of 50 mM Tris-HCl (pH=7.6) buffer solution containing 50 μL of [^3H]-ketanserin (final concentration 1 nM), 1 μL of test drug in DMSO, and 149 μL of human 5-HT2A receptor-expressing CHO cell membrane sample, human 5-HT2A receptor binding activity of [^3H]-ketanserin was measured. The reaction solution let stand for 15 minutes at 37° C., and then it was quickly added on a glass fiber filter plate (Multiscreen FB, Millipore inc.) coated with 0.05% Brij 35 and filtered under reduced pressure. The glass fiber filter was washed with 200 μL of ice-cooled 50 mM Tris-HCl (pH=7.6) twice, repeatedly filtered under reduced pressure, and then transferred to a vial containing 4 mL of Ecoscint A (National Diagnostics inc.). The residual radioactivity on the glass fiber filter was measured by a liquid scintillation counter. Nonspecific binding was measured in the presence of 10 μM of MDL-100907, and [^3H]-ketanserin binding inhibition rate in the presence of 1 nM or 10 nM of test drug was determined.

[3] = target: T2, human 5-HT6 receptor (Homo sapiens, UniProt P50406); assay: Serotonin 5-HT6 receptor binding assay ([3H]-clozapine); settings: 100 nM test drug; [3H]-clozapine 2 nM; human 5-HT6 receptor-expressing CHO cell membrane; read-out: BINDING INHIBITION RATE (%) 5HT6 100 nM
T2 construct: expressed in transfected cells; host or cells: CHO cells (membrane preparation)
T2 sequence (P50406 whole entry): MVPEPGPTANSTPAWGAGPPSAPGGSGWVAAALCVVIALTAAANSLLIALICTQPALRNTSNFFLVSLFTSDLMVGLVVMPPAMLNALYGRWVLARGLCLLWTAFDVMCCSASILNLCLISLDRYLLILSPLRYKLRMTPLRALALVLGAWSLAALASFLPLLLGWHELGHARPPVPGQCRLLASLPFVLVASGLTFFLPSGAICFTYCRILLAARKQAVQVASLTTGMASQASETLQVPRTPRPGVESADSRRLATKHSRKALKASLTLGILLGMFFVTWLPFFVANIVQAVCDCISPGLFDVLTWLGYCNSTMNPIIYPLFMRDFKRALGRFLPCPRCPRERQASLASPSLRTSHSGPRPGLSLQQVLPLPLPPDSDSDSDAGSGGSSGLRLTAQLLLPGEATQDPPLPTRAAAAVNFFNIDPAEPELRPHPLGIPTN
Protocol: (3) Serotonin 5-HT6 Receptor Binding Assay
After a reaction in a total volume of 200 μL of 50 mM Tris-HCl (pH=7.6), 4 mM CaCl2, and 0.5 mM EDTA buffer solution containing 50 μL of [^3H]-clozapine (final concentration 2 nM), 1 μL of test drug in DMSO, and 149 μL of human 5-HT6 receptor-expressing CHO cell membrane sample, human 5-HT6 receptor binding activity of [^3H]-clozapine was measured. The reaction solution let stand for 40 minutes at room temperature, and then it was quickly added on a glass fiber filter plate (Multiscreen FB, Millipore inc.) coated with 0.3% polyethyleneimine (PEI) and filtered under reduced pressure. The glass fiber filter was washed with 200 μL of ice-cooled 50 mM Tris-HCl (pH=7.6) twice, repeatedly filtered under reduced pressure, and then transferred to a vial containing 4 mL of Ecoscint A (National Diagnostics inc.). The residual radioactivity on the glass fiber filter was measured by a liquid scintillation counter. Nonspecific binding was measured in the presence of 10 μM of SB-258585, and [^3H]-clozapine binding inhibition rate in the presence of 100 nM of test drug was determined.

[4] = target: T3, human α1D receptor (Homo sapiens, UniProt P25100); assay: Adrenaline α1D receptor binding assay ([3H]-prazosin); settings: 100 nM test drug; [3H]-prazosin 0.6 nM; human α1D receptor-expressing CHO cell membrane; read-out: BINDING INHIBITION RATE (%) α1D 100 nM
T3 construct: expressed in transfected cells; host or cells: CHO cells (membrane preparation)
T3 sequence (P25100 1-572): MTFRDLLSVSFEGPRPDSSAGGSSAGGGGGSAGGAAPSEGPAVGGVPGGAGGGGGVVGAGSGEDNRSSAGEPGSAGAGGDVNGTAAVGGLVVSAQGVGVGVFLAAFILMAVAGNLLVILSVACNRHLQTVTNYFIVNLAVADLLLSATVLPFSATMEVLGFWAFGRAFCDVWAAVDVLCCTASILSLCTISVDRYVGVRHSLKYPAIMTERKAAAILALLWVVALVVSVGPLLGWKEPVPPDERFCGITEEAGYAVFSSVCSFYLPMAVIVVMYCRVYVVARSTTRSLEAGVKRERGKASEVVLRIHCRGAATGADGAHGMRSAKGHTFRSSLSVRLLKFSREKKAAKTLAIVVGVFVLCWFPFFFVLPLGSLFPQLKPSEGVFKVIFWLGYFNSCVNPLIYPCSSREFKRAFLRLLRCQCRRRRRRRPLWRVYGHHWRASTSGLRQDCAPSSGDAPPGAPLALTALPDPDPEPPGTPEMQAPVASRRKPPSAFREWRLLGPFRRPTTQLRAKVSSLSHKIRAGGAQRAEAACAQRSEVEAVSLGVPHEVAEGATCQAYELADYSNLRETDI
Protocol: (4) Adrenaline α1D Receptor Binding Assay
After a reaction in a total volume of 200 μL of 50 mM Tris-HCl (pH=7.6) buffer solution containing 50 μL of [^3H]-prazosin (final concentration 0.6 nM), 1 μL of test drug in DMSO, and 149 μL of human α1D receptor-expressing CHO cell membrane sample, human α1D receptor binding activity of [^3H]-prazosin was measured. The reaction solution let stand for 30 minutes at room temperature, and then it was quickly added on a glass fiber filter plate (Multiscreen FB, Millipore inc.) coated with 0.3% polyethyleneimine (PEI) and filtered under reduced pressure. The glass fiber filter was washed with 200 μL of ice-cooled 50 mM Tris-HCl (pH=7.6) twice, repeatedly filtered under reduced pressure, and then transferred to a vial containing 4 mL of Ecoscint A (National Diagnostics inc.). The residual radioactivity on the glass fiber filter was measured by a liquid scintillation counter. Nonspecific binding was measured in the presence of 1 μM of prazosin, and [^3H]-prazosin binding inhibition rate in the presence of 100 nM of test drug was determined.

Chain of human D2L receptor (P14416 whole entry): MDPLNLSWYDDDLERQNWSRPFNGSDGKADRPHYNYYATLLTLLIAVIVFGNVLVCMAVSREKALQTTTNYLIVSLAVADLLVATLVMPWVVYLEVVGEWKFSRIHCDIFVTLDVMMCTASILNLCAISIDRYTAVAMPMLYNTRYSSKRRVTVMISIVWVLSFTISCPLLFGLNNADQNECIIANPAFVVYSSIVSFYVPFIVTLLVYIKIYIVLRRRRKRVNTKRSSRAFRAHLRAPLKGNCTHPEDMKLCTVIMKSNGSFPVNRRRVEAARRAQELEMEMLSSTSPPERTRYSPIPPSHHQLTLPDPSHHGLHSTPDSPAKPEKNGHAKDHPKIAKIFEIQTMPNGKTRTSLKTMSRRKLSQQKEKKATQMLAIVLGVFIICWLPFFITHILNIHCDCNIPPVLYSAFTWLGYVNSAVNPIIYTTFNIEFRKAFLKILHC

## Cc1ccc2nc(C(=O)N3CCC[C@H]3CCN3CCC(C(=O)c4ccc(F)cc4)CC3)[nH]c2c1 [Example 59]
[1]
  inhibition at 0.01 µM: 91%
[2]
  inhibition at 0.001 µM: 58%
[3]
  inhibition at 0.1 µM: 87%
[4]
  inhibition at 0.1 µM: 95%

## O=C(/C=C/c1ccc2c(c1)OCO2)N1CCC[C@@H](CCN2CCN(c3nsc4ccccc34)CC2)C1 [Example 4, (S,E)-3-(Benzo[d][1,3]-5-dioxolyl)-1-(3-(2-(4-(benzo[d]isothiazo-3-yl)piperazin-1-yl)ethyl)piperidin-1-yl)-2-propen-1-one]
[1]
  inhibition at 0.01 µM: 73%
[2]
  inhibition at 0.01 µM: 96%
[3]
  inhibition at 0.1 µM: 65%
[4]
  inhibition at 0.1 µM: 30%

## O=C(/C=C/c1ccc2c(c1)OCO2)N1CC[C@H]1CCN1CCC(c2noc3cc(F)ccc23)CC1 [Example 18]
[1]
  inhibition at 0.01 µM: 54%
[2]
  inhibition at 0.01 µM: 100%
[3]
  inhibition at 0.1 µM: 74%
[4]
  inhibition at 0.1 µM: 102%

## O=C(/C=C/c1ccc2c(c1)OCO2)N1CCC[C@H](CN2CCC(c3coc4ccccc34)CC2)C1 [Example 29]
[1]
  inhibition at 0.01 µM: 80%
[2]
  inhibition at 0.01 µM: 100%
[3]
  inhibition at 0.1 µM: 85%
[4]
  inhibition at 0.1 µM: 92%

## Cc1ccc2cc(C(=O)N3CCC[C@H]3CCN3CCN(c4noc5cc(F)ccc45)CC3)[nH]c2c1 [Example 21]
[1]
  inhibition at 0.01 µM: 73%
[2]
  inhibition at 0.001 µM: 41%
[3]
  inhibition at 0.1 µM: 94%
[4]
  inhibition at 0.1 µM: 55%

## O=C(c1ccc(F)cc1)C1CCN(CC[C@@H]2CCCN2C(=O)c2cc3c(F)cccc3[nH]2)CC1 [Example 62]
[1]
  inhibition at 0.01 µM: 81%
[2]
  inhibition at 0.001 µM: 61%
[3]
  inhibition at 0.1 µM: 87%
[4]
  inhibition at 0.1 µM: 43%

## O=C(c1ccc(F)cc1)C1CCN(CC[C@@H]2CCCN2C(=O)c2[nH]c3ccccc3c2F)CC1 [Example 165, (S)-(3-Fluoro-1H-indol-2-yl)(2-(2-(4-(4-fluorobenzoyl)piperidin-1-yl)ethyl)pyrrolidin-1-yl)methanone]
[1]
  inhibition at 0.01 µM: 90%
[2]
  inhibition at 0.001 µM: 74%
[3]
  inhibition at 0.1 µM: 90%
[4]
  inhibition at 0.1 µM: 53%

## COc1cc2cc(C(=O)N3CCC[C@H]3CCN3CCC(C(=O)c4ccc(F)cc4)CC3)[nH]c2cn1 [Example 50]
[1]
  inhibition at 0.01 µM: 71%
[2]
  inhibition at 0.001 µM: 66%
[3]
  inhibition at 0.1 µM: 88%
[4]
  inhibition at 0.1 µM: 43%

## Cc1ccc2cc(C(=O)N3CCOCCC3CCN3CCC(c4c[nH]c5ccccc45)CC3)[nH]c2c1 (stereo not shown) [Example 43]
[1]
  inhibition at 0.01 µM: 74%
[2]
  inhibition at 0.001 µM: 77%
[3]
  inhibition at 0.1 µM: 83%
[4]
  inhibition at 0.1 µM: 82%

## Cc1ccc2cc(C(=O)N3CCC[C@H]3CCN3CCC(n4ccc5ccc(F)cc54)CC3)[nH]c2c1 [Example 10]
[1]
  inhibition at 0.01 µM: 52%
[2]
  inhibition at 0.001 µM: 37%
[3]
  inhibition at 0.1 µM: 74%
[4]
  inhibition at 0.1 µM: 12%
